Source: article PMC8160450, “GRK Inhibition Potentiates Glucagon-Like Peptide-1 Action” (Frontiers in Endocrinology, 2021)
No end group written: not given here.

Legend:
Assay type in all cases: cell-based
[1] = test system: β-arrestin recruitment to the GLP-1R; test: GLP-1 mediated β-arrestin recruitment assay (PathHunter eXpress GLP1R CHO-K1 β-Arrestin cells); settings: CHO-K1 cells stably expressing human GLP-1 receptor and β-arrestin
Protocol: PathHunter® eXpress GLP1R CHO-K1 β-Arrestin cells were plated at 6000 cells/well in a 384-well, PDL, white and opaque plate in F12 medium containing 10% FBS, 0.3 mg/ml hygromycin, and 0.8 mg/ml G418. The plate was incubated for two days in a humidified incubator at 37°C and 5% CO2 prior to the experiment. On the day of the exeperiment, the cells were washed once with the Assay Buffer (HBSS with calcium and magnesium, 20 mM Hepes, and 0.1% fatty-acid free BSA) followed by a 10 minute preincubation with GRK inhibitors or vehicle (DMSO) at the indicated concentrations. The final DMSO concentration was 0.1%. GLP-1 was added to the indicated concentrations, and incubation was continued for an additional 90 minutes at 37°C. The detection reagent was then added the cells, followed by a 60 minute incubation at the room temperature. The plate was read on MicroBeta LumiJet (PerkinElmer, Waltham, MA). In this cellular system, the GLP-1 receptor is fused in frame with the small enzyme fragment of ProLinkTM and co-expressed in cells expressing a fusion of the larger deletion mutant of β-gal, also called enzyme acceptor. […] The cellular β-gal enzyme activity is measured using chemiluminescent detection reagents.

[2] = test system: INS-1 832/13 cells; test: GLP-1 mediated insulin secretion in INS-1 832/13 cells; settings: GLP-1 at 10 nM, 5 mM glucose
Protocol: INS-1 832/13 cells were cultured in medium composed of RPMI 1640 medium supplemented with 10% fetal bovine serum, 50 IU/mL penicillin, 50 mg/L streptomycin, 10 mM HEPES, 2 mM L-glutamine, 1 mM sodium pyruvate, and 50 µM beta-mercaptoethanol. Cells were split twice a week, grown in a 37°C incubator under a humidified atmosphere containing 5% CO2 and plated at (60,000 cells/well) in a 96-well plate, two days prior to the experiment. Cells were washed twice with glucose-free Krebs-Ringer Bicarbonate buffer (KRB) (116 mM NaCl, 1.8 mM CaCl2, 0.8 mM MgSO4, 5.4 mM KCl, 1 mM NaH2PO4, 26 mM NaHCO3, and 0.2% fatty-acid free BSA, pH 7.4) followed by preincubation for 1 h at 37°C in glucose-free KRB and the indicated concentration of GRK compounds or vehicle (DMSO) were added. The final DMSO concentration was 0.1%. After 30 min incubation at 37°C, 2 mM or 5 mM glucose and 10 nM GLP-1 were added to the wells for a final volume of 200 μL. After further incubation for 1 hour at 37°C, 20 μL of the culture supernatant was diluted 1:15 in the Dilution Buffer provided in the Insulin High Range Assay HTRF Kit (Cisbio, Bedford, MA). Insulin was detected using the Insulin High Range Assay HTRF Kit according to the manufacturer’s instructions (Cisbio, Bedford, MA). All results were obtained in 5 replicates.

[3] = test system: mouse pancreatic islets; test: Glucose stimulated insulin secretion (GSIS) in isolated mouse pancreatic islets; settings: 20 nM GLP-1, 2 mM glucose
Protocol: Islets were isolated from mouse pancreas by collagenase digestion ([20]). The collagenase was dissolved in Hanks’ balanced salt solution (Invitrogen, Carlsbad, CA) containing 10 µg/ml DNase I (Roche Diagnostics, Indianapolis, IN) and 0.2% BSA, and was subsequently injected into the common bile duct. The pancreas was removed and incubated at 37°C for 20 min and washed three times with Hanks’ balanced salt solution and islets were collected under a microscope. Purified islets were used after an overnight incubation in RPMI 1640 medium containing 5.5 mmol/l glucose and 10% fetal bovine serum in a humidified atmosphere containing 5% CO2/95% air at 37°C. A group of 7 islets was preincubated in Krebs Ringer bicarbonate buffer (KRBH) containing 0.2% BSA and 2 mM glucose for 40 min at 37°C. The indicated concentration of GRK compounds or vehicle (DMSO) were added. The final DMSO concentration was 0.1%. After 30 min incubation at 37°C, 2 mM or 10 mM glucose along with 20 nM GLP-1 were added to wells. After further incubation for 1 hour at 37°C with shaking, culture supernatant was collected, and insulin was detected using the Insulin High Range Assay HTRF Kit according to the manufacturer’s instructions (Cisbio, Bedford, MA).

Human GLP-1 (7-36) amide (HAEGTFTSDVSSYLEGQAAKEFIAWLVKGR-NH2; UniProt P01275 98-127, looked up, fragment)
EC80 for increase of cellular β-gal enzyme activity (β-arrestin recruitment) [1]: approximately 100 nM
insulin secretion [2]: stimulated insulin secretion
insulin secretion at 2 mM glucose, GLP-1 alone [3]: did not stimulate insulin secretion
